Where a name gives a salt, the structure may show the parent alone. Read-outs that look alike come from different tables or passages of the source.
Experiments:
[1] = biological target: T1, ICAM-1 binding to immobilized Mac-1 (Homo sapiens, UniProt P05107+P11215); assay: Mac-1/ICAM-1 screening assay (solid-phase ELISA); conditions: read-out: Mac-1/ICAM-1 Protein-Protein Assay IC50
T1 construct: made in house; host or cells: transfected 293 cells (Mac-1)
Outline: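 Competitive solid-phase ELISA: membrane Mac-1 from transfected 293 cells coated at 3 μg/mL in 20 mM Hepes pH 7.2/0.14 M NaCl/1 mM MnCl2; compounds (0.12 nM-20 μM, 1:4 series) plus 5dICAM-Ig (40 μg/mL, added) 2 h at 37° C. Bound ICAM-Ig detected with HRP anti-human IgG Fc, TMB, A450; IC50 reported.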

[2] = tested on: T lymphocyte proliferation (C57BI/6 spleen cells with irradiated BALB/c spleen cells); assay: Mixed lymphocyte reaction (MLR), one-way; assay type: cell-based, mice; conditions: read-out: MLR IC50
Outline: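 Irradiated BALB/c spleen cells mixed with C57BI/6 spleen cells in RPMI1640/10% heat-inactivated FBS/2-mercaptoethanol, with serial antagonist dilutions; 3 days at 5% CO2. Tritiated thymidine (0.5 μCi/well) added on day 3; incorporation counted by liquid scintillation after a further 6 h.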

T1 sequence (P05107 23-769, other chains not shown): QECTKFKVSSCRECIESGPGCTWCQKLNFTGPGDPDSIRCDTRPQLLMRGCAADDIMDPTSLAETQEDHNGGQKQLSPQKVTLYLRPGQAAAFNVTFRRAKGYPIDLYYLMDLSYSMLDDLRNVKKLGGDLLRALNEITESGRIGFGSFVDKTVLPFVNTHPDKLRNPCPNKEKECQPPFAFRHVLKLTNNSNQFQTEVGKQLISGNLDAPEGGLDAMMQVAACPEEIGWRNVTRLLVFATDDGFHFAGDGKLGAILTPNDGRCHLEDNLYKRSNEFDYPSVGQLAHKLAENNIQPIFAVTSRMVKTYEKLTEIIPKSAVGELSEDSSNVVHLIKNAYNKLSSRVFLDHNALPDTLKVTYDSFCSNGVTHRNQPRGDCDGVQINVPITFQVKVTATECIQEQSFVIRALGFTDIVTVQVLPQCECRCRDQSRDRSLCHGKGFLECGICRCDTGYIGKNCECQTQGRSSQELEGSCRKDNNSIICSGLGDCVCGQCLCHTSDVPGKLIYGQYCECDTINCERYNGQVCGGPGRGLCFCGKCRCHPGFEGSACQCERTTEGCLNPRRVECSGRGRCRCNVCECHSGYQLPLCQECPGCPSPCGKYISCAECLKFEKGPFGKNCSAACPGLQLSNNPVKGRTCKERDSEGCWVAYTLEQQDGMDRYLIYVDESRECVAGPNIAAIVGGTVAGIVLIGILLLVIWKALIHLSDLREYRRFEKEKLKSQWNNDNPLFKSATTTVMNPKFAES

Structure (SMILES) | IC50 [1] [nM] | IC50 ([2]; Mus musculus, T-lymphocyte) [nM] | IC50 ([2]; sodium salt) [nM]
O=C(NCc1cccc(O)c1)c1ccc(C(=O)N[C@@H](CNC(=O)c2cnc3ccccc3c2)C(=O)O)c(Cl)c1 [Example 183] | 222 | 4600 | 
O=C(NCc1cccc(O)c1)c1ccc(C(=O)N[C@@H](CNC(=O)c2cc(=O)c3ccccc3o2)C(=O)O)c(Cl)c1 [Example 187] | 56 | 2800 | 
CC(=O)NC[C@H](NC(=O)c1ccc(C(=O)NCc2cccc(O)c2)cc1Cl)C(=O)O [Example 193] | 49 | 830 | 
CC(C)CC(=O)NC[C@H](NC(=O)c1ccc(C(=O)NCc2cccc(O)c2)cc1Cl)C(=O)O [Example 195] | 47 | 840 | 
NCCCC[C@H](N)C(=O)NC[C@H](NC(=O)c1ccc(C(=O)NCc2cccc(O)c2)cc1Cl)C(=O)O [Example 198] | 48 | 21500 | 
N[C@@H](Cc1c[nH]c2ccccc12)C(=O)NC[C@H](NC(=O)c1ccc(C(=O)NCc2cccc(O)c2)cc1Cl)C(=O)O [Example 201] | 49 | 17300 | 
O=C(NC[C@H](NC(=O)c1c(Cl)cccc1Cl)C(=O)O)c1ccccc1 [Example 219] | 319 | 7250 | 
O=C(NC[C@H](NC(=O)c1c(Cl)cccc1Cl)C(=O)O)c1ccc(Br)s1 [Example 223] | 82 | 3600 | 
O=C(NC[C@H](NC(=O)c1c(F)cccc1Cl)C(=O)O)c1ccc(Br)s1 [Example 224] | 377 | 11100 | 
Cc1nnsc1C(=O)NC[C@H](NC(=O)c1ccc(C(=O)NCc2cccc(O)c2)cc1Cl)C(=O)O [Example 255] | 41 | 1850 | 
Nc1cccn(CC(=O)NC[C@H](NC(=O)c2ccc(C(=O)NCc3cccc(O)c3)cc2Cl)C(=O)O)c1=O [Example 266] | 306 | 3050 | 
O=C(O)c1cccc(C(=O)NC[C@H](NC(=O)c2ccc(C(=O)NCc3cccc(O)c3)cc2Cl)C(=O)O)c1 [Example 297] | 81 | 1650 | 
O=C(O)CCCC(=O)NC[C@H](NC(=O)c1ccc(C(=O)NCc2cccc(O)c2)cc1Cl)C(=O)O [Example 298] | 298 | 1800 | 
O=C(NCc1cccc2[nH]ccc12)c1ccc(C(=O)N[C@@H](CNC(=O)c2ccccc2)C(=O)O)c(Cl)c1 [Example 314, 3-(benzoylamino)-N-[2-chloro-4-[[(1H-indol-4-ylmethyl)amino]carbonyl]benzoyl]-L-alanine] | 40 | 625 | 
O=C(NCc1cccc2c1CCN2)c1ccc(C(=O)N[C@@H](CNC(=O)c2cccs2)C(=O)O)c(Cl)c1 [Example 318, 3-(thiophene-2-carbonyl)amino-N-[2-chloro-4-[[(2,3-dihydro-1H-indol-4-ylmethyl)amino]carbonyl]benzoyl]-L-alanine] | 98 | 1850 | 
O=C(CCc1cccc(O)c1)c1ccc(C(=O)N[C@@H](CNC(=O)c2cccs2)C(=O)O)c(Cl)c1 [Example 319, N-[2-chloro-4-[1-oxo-3-(3-hydroxyphenyl)propyl]benzoyl]-3-(thiophene-2-carbonyl)amino-L-alanine] | 43 | 665 | 
O=C(NC[C@H](NC(=O)c1ccc(-n2nnnc2NCc2cccc(O)c2)cc1Cl)C(=O)O)c1cccs1 [Example 321] | 76 | 775 | 
O=C(NCc1cccc2[nH]cnc12)c1ccc(C(=O)N[C@@H](CNC(=O)c2cccs2)C(=O)O)c(Cl)c1 [Example 322] | 51 | 3600 | 
C[C@@H](NC(=O)c1ccc(C(=O)N[C@@H](CNC(=O)c2cccs2)C(=O)O)c(Br)c1)c1cccc2ccccc12 [Example 332] | 68 | 1540 | 

More lines, in order of falling IC50 [1], values ahead:

IC50 [1] [nM] | Structure (SMILES) | IC50 ([2]; Mus musculus, T-lymphocyte) [nM] | IC50 ([2]; sodium salt) [nM]
40 | O=C(NCc1cccc(O)c1)c1ccc(C(=O)N[C@@H](CNC(=O)c2ccc3c(c2)S(=O)(=O)c2ccccc2C3=O)C(=O)O)c(Cl)c1 [Example 192] | 1700 | 
38 | CSCC[C@H](N)C(=O)NC[C@H](NC(=O)c1ccc(C(=O)NCc2cccc(O)c2)cc1Cl)C(=O)O [Example 197] | 22500 | 
37 | N[C@@H](CCC(=O)NC[C@H](NC(=O)c1ccc(C(=O)NCc2cccc(O)c2)cc1Cl)C(=O)O)C(=O)O [Example 202] | 500 | 
36 | CC(C)C(=O)NC[C@H](NC(=O)c1ccc(C(=O)NCc2cccc(O)c2)cc1Cl)C(=O)O [Example 194] | 800 | 
36 | N[C@@H](Cc1ccccc1)C(=O)NC[C@H](NC(=O)c1ccc(C(=O)NCc2cccc(O)c2)cc1Cl)C(=O)O [Example 199] | 19000 | 
36 | Cc1ccc(C(=O)NC[C@H](NC(=O)c2ccc(C(=O)NCc3cccc4[nH]ccc34)cc2Cl)C(=O)O)s1 [Example 317] | 1750 | 
33 | NC(=O)C[C@H](N)C(=O)NC[C@H](NC(=O)c1ccc(C(=O)NCc2cccc(O)c2)cc1Cl)C(=O)O [Example 200] | 3100 | 
31 | O=C(NCc1cccc(O)c1)c1ccc(C(=O)N[C@@H](CNC(=O)c2ccc3ccccc3c2)C(=O)O)c(Cl)c1 [Example 179] | 5400 | 
31 | O=C(NCc1cccc(O)c1)c1ccc(C(=O)N[C@@H](CNC(=O)c2ccccc2)C(=O)O)c(Cl)c1 [Example 302, 3-benzoylamino-N-[2-chloro-4-[[[(3-hydroxyphenyl)methyl]amino]carbonyl]benzoyl]-L-alanine] | 310 | 
27 | NC1(C(=O)NC[C@H](NC(=O)c2ccc(C(=O)NCc3cccc(O)c3)cc2Cl)C(=O)O)CCCC1 [Example 263] | 2100 | 
26 | COc1c(C(=O)NC[C@H](NC(=O)c2ccc(C(=O)NCc3cccc(O)c3)cc2Cl)C(=O)O)csc1Cl [Example 258, N-[2-chloro-4-[[[(3-hydroxyphenyl)methyl]amino]carbonyl]benzoyl]-3-(5-chloro-4-methoxythiophene-3-carbonyl)amino-L-alanine] | 3750 | 
25 | N[C@H]1CC[C@@H](C(=O)NC[C@H](NC(=O)c2ccc(C(=O)NCc3cccc(O)c3)cc2Cl)C(=O)O)CC1 [Example 264] | 1950 | 
25 | O=C(NCc1cccc2[nH]ccc12)c1ccc(C(=O)N[C@@H](CNC(=O)c2cccs2)C(=O)O)c(Br)c1 [Example 329] | 420 | 
24 | O=C(NCc1cccc2[nH]ccc12)c1ccc(C(=O)N[C@@H](CNC(=O)c2ccoc2)C(=O)O)c(Cl)c1 [Example 316] | 425 | 
23 | O=C(NCc1cccc(O)c1)c1ccc(C(=O)N[C@@H](CNC(=O)c2cc3ccccc3s2)C(=O)O)c(Cl)c1 [Example 175] | 4000 | 
23 | COc1cscc1C(=O)NC[C@H](NC(=O)c1ccc(C(=O)NCc2cccc(O)c2)cc1Cl)C(=O)O [Example 257] | 1400 | 
19 | O=C(NCc1cccc(O)c1)c1ccc(C(=O)N[C@@H](CNC(=O)c2ccc3ncsc3c2)C(=O)O)c(Cl)c1 [Example 177] | 950 | 
19 | O=C(NCc1cccc(O)c1)c1ccc(C(=O)N[C@@H](CNC(=O)c2cccc3ccccc23)C(=O)O)c(Cl)c1 [Example 178] | 900 | 
19 | O=C(NCc1cccc(O)c1)c1ccc(C(=O)N[C@@H](CNC(=O)c2cccs2)C(=O)O)c(Cl)c1 [Example 305, N-[2-chloro-4-[[[(3-hydroxyphenyl)methyl]amino]carbonyl]benzoyl]-3-(thiophene-2-carbonyl)amino-L-alanine, sodium salt] |  | 100
16 | O=C(NCc1cccc(O)c1)c1ccc(C(=O)N[C@@H](CNC(=O)[C@@H]2CCCN2)C(=O)O)c(Cl)c1 [Example 196] | 5500 | 
15 | O=C(NCc1cccc(O)c1)c1ccc(C(=O)N[C@@H](CNC(=O)C2CCNCC2)C(=O)O)c(Cl)c1 [Example 262] | 1800 | 
14 | O=C(NCc1cccc(O)c1)c1ccc(C(=O)N[C@@H](CNC(=O)c2ccno2)C(=O)O)c(Cl)c1 [Example 256] | 525 | 
11 | O=C(NCc1cccc(O)c1)c1ccc(C(=O)N[C@@H](CNC(=O)c2csnn2)C(=O)O)c(Cl)c1 [Example 254] | 460 | 
11 | NCCCC(=O)NC[C@H](NC(=O)c1ccc(C(=O)NCc2cccc(O)c2)cc1Cl)C(=O)O [Example 261, N-[2-chloro-4-[[[(3-hydroxyphenyl)methyl]amino]-carbonyl]benzoyl]-3-(4-aminobutanoylamino)-L-alanine] | 780 | 
6.8 | O=C(NCc1cccc(O)c1)c1ccc(C(=O)N[C@@H](CNC(=O)c2cc(F)cc(F)c2)C(=O)O)c(Cl)c1 [Example 252, N-[2-chloro-4-[[[(3-hydroxyphenyl)methyl]amino]carbonyl]benzoyl]-3-(3,5-difluorobenzoyl)amino-L-alanine] | 340 | 
6.4 | O=C(NCc1cccc(O)c1)c1ccc(C(=O)N[C@@H](CNC(=O)c2cccs2)C(=O)O)c(Cl)c1 [Example 303, N-[2-chloro-4-[[[(3-hydroxyphenyl)methyl]amino]carbonyl]benzoyl]-3-(thiophene-2-carbonyl)amino-L-alanine] | 70 | 
